Measurements from US11523610B2, “Regulating plant growth using a diapocarotenoid” (King Abdullah University of Science and Technology, priority 2018, dated 2022).
“Also recorded” adds a separate entry of the source.

Assays:
[1] = test system: Arabidopsis root growth (Col-0 seedlings); assay: Primary root length of Arabidopsis seedlings on treated half MS agar plates; assay type: in vivo
Protocol: β-cyclocitral, β-ionone and D′orenone (β-Apo-13-caroteneone) (FIG. 1A) were purchased from Buchem (Netherlands). Diapo1, Diapo2, Diapo3, Diapo4, Diapo5, and Diapo6 (FIG. 1B) were synthesized by Buchem (Netherlands). Diapo3 was also synthesized together with D6-anchorene and anchorene derivatives according to the protocol of SCHEME 2. Apocarotenoids and diapocarotenoids were dissolved in acetone to make stock solutions (10 mM). For the screening experiments, each chemical was diluted in half strength Murashige and Skoog (MS) media (with 0.5% sucrose+1% agar, 0.5 g/L MES, pH 5.7) to reach indicated concentrations of 25 μM and 5 μM. A stock solution of 10 mM GR24 (Chiralix, Netherlands) was also made by diluting GR24 in acetone. Stock solutions of D15 (100 mM), Norflurazone (5 mM), and CPTA (50 mM) were made in dimethyl sulfoxide (DMSO). For experiments, these compounds were diluted in concentrations of 125 μM D15, 500 nM Norflurazone, or 100 μM CPTA, respectively. 1-Naphthaleneacetic acid (NAA) and N-1-Naphthylphthalamic Acid (NPA) were purchased from Sigma-Aldrich (Germany) and dissolved in water to make 1 mM stock solutions. For NAA and NPA treatments, media containing 0.1 μM NAA and 1 μM NPA were used. Unless otherwise noted, all commercially available compounds were used as provided without further purification.
Sterilized Col-0 and mutants seeds were kept at 4° C. in darkness for 3 days to stimulate seed germination, and then sown on half strength MSO plates (with 0.5% sucrose +1% agar, 0.5g/L MES, pH 5.7) supplemented with the indicated chemicals as described below or in the Figures. Plates were vertically grown in PERCIVAL® growth chambers under long day (16 h light/8 h dark, 22° C., 60% relative humidity, light density: 4000 LUX) LED white light [HYPERIKON® 16 W LED Light Bulb A21, 16 W (100 W Equivalent), CRI92, 1620 Lumens, 4000K (Daylight Glow)] conditions. Light fluorescence rates were measured using a digital LUX meter ([…]® 5025).
ANRs were counted in seedlings vertically grown on half strength MS (with 0.5% sucrose +1% agar, 0.5 g/L MES, pH 5.7) media 8 days post-stratification (dps) using a dissection microscope. To investigate ANR formation after root apical meristems (RAM) excision (ANR-RE), RAM of seedlings were excised using sterile scalpels at 5 dps and then grown for another 3 days prior to counting the number of emerged ANRs. RAM of seedlings were excised at 8 dps and then grown for another 3 days prior to counting the number of emerged LRs. For determining the effect of anchorene on lateral roots, the number of emerged lateral roots were counted using a dissection microscope at 8 dps. For primary root length measurements, seedlings were measured using the publicly available ImageJ software (downloaded from rsbweb.nih.gov/ij/) after taking digital photographs. For adventitious root assay, the number of emerged adventitious roots per plant were counted after 5 days of treatment on plates with or without anchorene.
Six previously identified or predicted diapocarotenoids with chain lengths ranging from C9 to C15 (Diapo1-6) (FIG. 1B) and 3 apocarotenoids (FIG. 1C) were selected to identify new carotenoid-derived signals involved in root development). These compounds were selected because they are available and stable at ambient conditions. Diapo1 (C9) is the expected product formed upon cleavage of all-trans-β-apo-10′ carotenal. Diapo2 (C10) results from cleaving the C7, C8 and C15, C15′ double bonds in different carotenoids and is produced by cyanobacterial retinal-forming enzymes from Cm-apocarotenoids. Diapo3 (C10) is a structural isomer of Diapo2 and a predicted cleavage product that can be formed by cutting the C11, C12 and C11′, C12′ bonds in almost all plant carotenoids (FIGS. 1A, 1B and 17). Diapo4 (C12) results from cleaving the C7, C8 and C13′, C14′ bonds in many carotenoids, and is formed by the CCD1 from apo-10′-lycopenal.

PIN3 = assay: PIN3-GFP fluorescence in ANR primordia (pPIN3::PIN3-GFP marker line); assay type: in vivo, Arabidopsis; settings: 20 μM anchorene
Protocol: For fluorescence intensity quantification of pDR5Rev::GFP and pPIN3::PIN3-GFP marker lines, ImageJ software (rsbweb.nih.gov/ij/) was used after taking confocal microscopy photos. All calculations are background subtracted.
To determine if the effect of anchorene on ANR development is caused by changes in auxin distribution, the activity of anchorene in the presence of NPA was evaluated. […] Vertical grown 5 DAG seedlings on half MSO with indicated treatments were analyzed. The orientation of root growth was measured and then was assigned to one of twelve 30° sectors. […] The auxin efflux carrier PIN3 plays an important role in LR initiation and emergence. Therefore, the effect of anchorene on PIN3 using the pPIN3::PIN3-GFP marker line was examined.

rice (Nipponbare) = assay: Rice hydroponic growth with anchorene; assay type: in vivo; settings: 20 μM anchorene, 6 days
Protocol: FIGS. 19A-E show anchorene promotes root growth in rice according to one or more embodiments of the present disclosure. […] Color photographs (B) and (C) show the comparison of the whole rice plant (B) and the root structure (C) under Mock and Anchorene treated conditions. (D) and (E) show quantification (cm) of the primary root length (D) and shoot length (E) under Mock and Anchorene treated conditions. 20 μM anchorene was used. The Nipponbare ecotype rice seeds were germinated for 4 days, and then transferred to Hoagland media hydroponic system with or without anchorene treatment for another 6 days. Anchorene was changed every 2 days for three times.
For rice, sterilized Nipponbare seeds were kept at 30° C. in darkness for 1 day to stimulate germination and transferred to Petri dishes with half strength Murashige and Skoog (MS) media (with 0.5 g/L MES, pH 5.7) and autoclaved filter paper. Dishes were incubated in darkness for 2 days then exposed to light for 1 day in PERCIVAL® growth chamber (12 h light/12 h dark, 26° C., 55% humidity, 500 umol.m^−2.s^−1). Uniform, healthy rice seedlings were transferred to hydroponic culture (Hoagland) supplied with acetone (Mock) or 20 μM anchorene. […] Crown roots number, as well as shoot and root length and fresh weight were recorded to perform the phenotyping.

C\C(C=O)=C/C=C/C=C(\C)C=O [anchorene, 12,12′-diapocarotene-12,12′-dial]
inhibition of primary root growth ([1]; 25 μM, 7 dps): weak inhibition | inhibition of primary root length ([1]; 8 DAG Col-0 seedlings, different concentrations of anchorene (FIG. 3F)): minor inhibition; also recorded: weak inhibitory effect | PIN3 levels (PIN3-GFP fluorescent intensity in ANR primordia) (PIN3): significantly increased | rice primary root and crown root growth (rice (Nipponbare)): clear effect | rice shoot growth (rice (Nipponbare)): not observed
